# Test results from PubChem BioAssay (NCI).
#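 Five concentrations, 48 hours, 96-well plates. GI50 is the concentration that inhibits growth by half. TGI: concentration producing complete growth inhibition.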
# Key:
# Test in all cases: NCI-60 cell line screen, 48 h
# [1] = test system: MDA-MB-468 breast
# [2] = test system: 786-0 renal
# [3] = test system: A498 renal
# [4] = test system: A549 NSCLC
# [5] = test system: ACHN renal
# [6] = test system: BT-549 breast
# [7] = test system: CAKI-1 renal
# [8] = test system: CCRF-CEM leukemia
# [9] = test system: COLO 205 colon
# [10] = test system: DU-145 prostate
# [11] = test system: EKVX NSCLC
# [12] = test system: HCC-2998 colon
# [13] = test system: HCT-116 colon
# [14] = test system: HCT-15 colon
# [15] = test system: HL-60(TB) leukemia
# [16] = test system: HOP-62 NSCLC
# [17] = test system: HOP-92 NSCLC
# [18] = test system: HS 578T breast
# [19] = test system: HT29 colon
# [20] = test system: IGROV1 ovarian
# [21] = test system: LOX IMVI melanoma
# [22] = test system: M14 melanoma
# [23] = test system: MALME-3M melanoma
# [24] = test system: MCF7 breast
# [25] = test system: MDA-MB-231 breast
# [26] = test system: MDA-MB-435
# [27] = test system: MOLT-4 leukemia
# [28] = test system: NCI-H226 lung
# [29] = test system: NCI-H23 lung
# [30] = test system: NCI-H460 lung
# [31] = test system: NCI-H522 lung
# [32] = test system: NCI/ADR-RES ovarian
# [33] = test system: OVCAR-3 ovarian
# [34] = test system: OVCAR-4 ovarian
# [35] = test system: OVCAR-5 ovarian
# [36] = test system: OVCAR-8 ovarian
# [37] = test system: PC-3 prostate
# [38] = test system: RPMI-8226 leukemia
# [39] = test system: RXF 393 renal
# [40] = test system: SF-268 CNS
# [41] = test system: SF-295 CNS
# [42] = test system: SF-539 CNS
# [43] = test system: SK-MEL-2 melanoma
# [44] = test system: SK-MEL-28 melanoma
# [45] = test system: SK-MEL-5 melanoma
# [46] = test system: SK-OV-3 ovarian
# [47] = test system: SN12C renal
# [48] = test system: SNB-19 CNS
# [49] = test system: SNB-75 CNS
# [50] = test system: SR leukemia
# [51] = test system: TK-10 renal
# [52] = test system: U251 CNS
# [53] = test system: UACC-257 melanoma
# [54] = test system: UACC-62 melanoma
# [55] = test system: UO-31 renal
compound,measurement,setting,value
CCCCCCCCCCCCCC[n+]1ccc(C)cc1,GI50,[1],0.207 µM
same,TGI,[1],0.808 µM
COc1ccc(C(=O)c2sc3nc(-c4cccs4)ccc3c2N)cc1OC,GI50,[1],1.87 µM
same,TGI,[1],> 100 µM
CC(C)C(=O)Nc1ccc(-c2nc(-c3cccc(O)c3)c(-c3ccnc(Br)c3)[nH]2)cc1,GI50,[1],0.795 µM
same,TGI,[1],2.74 µM
CN1CCN(c2nc(-c3csc(-c4cccs4)n3)cc3ccccc23)CC1,GI50,[1],1.69 µM
same,TGI,[1],3.39 µM
COC(=O)C(C(=O)OC)C(Br)C(Br)C(Br)c1ccccc1 (stereo not given),GI50,[1],2.06 µM
same,TGI,[1],6.18 µM
CCCCNc1ccc(Nc2ccccc2)cc1,GI50,[1],1.81 µM
same,TGI,[1],9.42 µM
Cn1cc(C2=C(Nc3ccccc3)C(=O)NC2=O)c2ccccc21,GI50,[1],> 23 µM
same,TGI,[1],> 25 µM
Cc1nc2ccccc2nc1N=Nc1ccccc1,GI50,[1],21 µM
same,TGI,[1],> 100 µM
O=C1c2cccnc2C(=O)c2c1c(C(=O)OCCCN1CCCCC1)c1ccccn21,GI50,[1],0.314 µM
same,TGI,[1],14.5 µM
NC1(Cc2ccc(Cl)cc2)CCN(c2ncnc3[nH]ccc23)CC1,GI50,[1],1.92 µM
same,TGI,[1],12.8 µM
O=[N+]([O-])c1cc([N+](=O)[O-])c(Cl)cc1Cl,GI50,[1],1.66 µM
same,TGI,[1],3.38 µM
Cc1[nH]c2cc(F)ccc2c1-c1nc2c3cccnc3c3ncccc3c2[nH]1,GI50,[1],0.0273 µM
same,TGI,[1],0.0828 µM
CCCCCCNCc1cc(C(C)(C)C)cc(CNCCCCCC)c1O,GI50,[1],1.59 µM
same,TGI,[1],3.01 µM
CC1=C2C(=C[C@@](C)(COC(=O)c3ccc(S(=O)(=O)F)cc3)[C@@H]2O)C(=O)[C@](C)(O)C12CC2,GI50,[1],0.53 µM
same,TGI,[1],2.17 µM
CC(C)(C)OC(=O)NCc1cccc(N=C=S)c1,GI50,[1],14.8 µM
same,TGI,[1],48.1 µM
COc1ccc2c(c1)c(-c1cc(N)n3nc(-c4c[nH]c5ccccc45)cc3n1)cn2C,GI50,[2],1.61 µM
same,TGI,[2],3 µM
same,GI50,[3],14 µM
same,TGI,[3],27.6 µM
same,GI50,[4],1.86 µM
same,TGI,[4],3.7 µM
same,GI50,[5],1.7 µM
same,TGI,[5],3.1 µM
same,GI50,[6],12.8 µM
same,TGI,[6],25.6 µM
same,GI50,[7],1.82 µM
same,TGI,[7],3.52 µM
same,GI50,[8],2.14 µM
same,TGI,[8],5.42 µM
same,GI50,[9],2.02 µM
same,TGI,[9],3.83 µM
same,GI50,[10],3.29 µM
same,TGI,[10],10.2 µM
same,GI50,[11],1.7 µM
same,TGI,[11],3.63 µM
same,GI50,[12],1.63 µM
same,TGI,[12],3.04 µM
same,GI50,[13],1.72 µM
same,TGI,[13],3.09 µM
same,GI50,[14],1.31 µM
same,TGI,[14],2.75 µM
same,GI50,[15],1.76 µM
same,TGI,[15],3.78 µM
same,GI50,[16],2.02 µM
same,TGI,[16],3.92 µM
same,GI50,[17],1.87 µM
same,TGI,[17],3.86 µM
same,GI50,[18],3.11 µM
same,TGI,[18],17.6 µM
same,GI50,[19],1.77 µM
same,TGI,[19],3.47 µM
same,GI50,[20],2.03 µM
same,TGI,[20],3.88 µM
same,GI50,[21],1.68 µM
same,TGI,[21],3.04 µM
same,GI50,[22],1.72 µM
same,TGI,[22],3.25 µM
same,GI50,[23],1.79 µM
same,TGI,[23],3.18 µM
same,GI50,[24],1.68 µM
same,TGI,[24],3.35 µM
same,GI50,[25],2.07 µM
same,TGI,[25],3.65 µM
same,GI50,[26],1.83 µM
same,TGI,[26],3.54 µM
same,GI50,[1],1.36 µM
same,TGI,[1],2.69 µM
same,GI50,[27],2.05 µM
same,TGI,[27],5.73 µM
same,GI50,[28],2.13 µM
same,TGI,[28],5.11 µM
same,GI50,[29],1.72 µM
same,TGI,[29],3.39 µM
same,GI50,[30],2.23 µM
same,TGI,[30],5.03 µM
same,GI50,[31],1.78 µM
same,TGI,[31],3.5 µM
same,GI50,[32],2.08 µM
same,TGI,[32],5.07 µM
same,GI50,[33],2.02 µM
same,TGI,[33],4.28 µM
same,GI50,[34],2.42 µM
same,TGI,[34],5.93 µM
same,GI50,[35],2.05 µM
same,TGI,[35],4.08 µM
same,GI50,[36],2.05 µM
same,TGI,[36],4.77 µM
same,GI50,[37],2.56 µM
same,TGI,[37],8.61 µM
same,GI50,[38],2.37 µM
same,TGI,[38],5.74 µM
same,GI50,[39],1.5 µM
same,TGI,[39],2.9 µM
same,GI50,[40],2.35 µM
same,TGI,[40],5.48 µM
same,GI50,[41],1.58 µM
same,TGI,[41],3.01 µM
same,GI50,[42],1.63 µM
same,TGI,[42],2.98 µM
same,GI50,[43],1.86 µM
same,TGI,[43],3.96 µM
same,GI50,[44],1.73 µM
same,TGI,[44],3.11 µM
same,GI50,[45],1.68 µM
same,TGI,[45],3.04 µM
same,GI50,[46],2.58 µM
same,TGI,[46],6.43 µM
same,GI50,[47],1.87 µM
same,TGI,[47],3.81 µM
same,GI50,[48],2.61 µM
same,TGI,[48],6.31 µM
same,GI50,[49],1.76 µM
same,TGI,[49],3.8 µM
same,GI50,[50],1.43 µM
same,TGI,[50],6.4 µM
same,GI50,[51],1.76 µM
same,TGI,[51],3.34 µM
same,GI50,[52],1.64 µM
same,TGI,[52],3.21 µM
same,GI50,[53],1.84 µM
same,TGI,[53],3.43 µM
same,GI50,[54],1.8 µM
same,TGI,[54],3.2 µM
same,GI50,[55],1.61 µM
same,TGI,[55],3.12 µM
